Key:
[1] = system: cerebellar neurons; test: Cerebellar microexplants exposed to glutamate and 3-nitropropionic acid; live neurons with neurites counted; assay type: cell-based, rat; details: for number of cells having neurites: administered simultaneously with glutamate, FIG. 1 / FIG. 2; for glutamate-induced neurotoxicity: low doses (cG-2AllylP: 100 pm to 10 nm)
Experimental: Cover slips were placed into a large Petri dish and washed in 70% alcohol for 5 minutes, then washed with Millipore H2O. The cover slips were air dried, and coated with Poly-D-Lysine (1 mg/ml stock solution in PBS, 90-100 μl) for 2 hours at 34° C.
Postnatal day 8 Wistar rats were used for the study. The rats were sacrificed and placed in ice for 1 minute, decapitated and the cerebellum removed and placed on ice. Cerebellum tissue was placed in 1 ml of 0.65% glucose-supplemented PBS (10 μl 65% stock D (+)glucose/1 ml PBS) in a large Petri dish, chopped up into smaller sections and triturated with a 1 ml insulin syringe via a 23 G (0.4 mm) needle, and then squirted back into the glucose solution in the large Petri dish. The tissue was sieved through (125 μm pore size gauze) and centrifuged (2 minutes at 60 g) twice to exchange the medium into serum-free BSA-supplemented START V medium (Biochrom, Germany). The second centrifugation step was done with 1 ml of START V medium. The microexplants were reconstituted into 500 μl of START V medium and put on ice.
Two hours after PDL-coating, the slides were washed with Millipore H2O and air dried. Each slide was placed into a small Petri dish (diameter: 35 mm) and 40 μl of START V/cell suspension was added. The tissue was incubated for 2 hours at 34° C. (settlement period). START V-medium (1 ml) was then added to the Petri dish and cultivated at 34° C. in the presence of 5% CO2 in air at 100% humidity for 48 hours.
For the study, certain explant cultures were exposed to vehicle (PBS) only. In the first study (Study 1) 10 μl of toxin 1 (L-glutamate-100 mM in Millipore water; final concentration: 1 mM) and 10 μl of toxin 2 (3-nitropropionic acid-50 mM-pH 7-in Millipore water, final concentration: 0.5 mM) was applied simultaneously with the drug to be tested ([…]). In each case, the drugs were left in contact with the explants for the duration of the study.
After explants were exposed to drugs for the study period, cells were then rinsed in PBS and then fixed in increasing concentrations of paraformaldehyde (500 μl of 0.4% PFA was applied; then 1.2% PFA; then 3% PFA and finally 4% PFA (each fixation step: 2-3 minutes). Finally, the microexplants were rinsed in PBS.
Neurons in the explants were then evaluated for morphology (presence of neurites) and counted as live cells per microscopic field. Four fields displaying highest cell density were counted per cover slip and the data presented as mean±standard error of the mean (SEM); n=4 each. Statistical significance was evaluated by using the non-paired Student's t-test.

[2] = system: rats exposed to hypoxic-ischemic injury (HI); test: Hypoxic-ischemic injury (modified Levine model), histological tissue damage score; assay type: in vivo, rat
Experimental: To determine whether cG-2AllylP might prevent neuronal injury in response to stroke, cardiac arterial bypass graft surgery (CABG) or other hypoxic insults, a series of studies were carried out in rats that had been exposed to hypoxic-ischemic injury (HI). Adult rats (Wistar, 280-310 g, male) were used. The modified Levine model preparation and experimental procedures were used (Rice et al, 1981, Ann. Neural.: 9: 131-141; Guan et al J., 1993, Cereb. Blood Flow Metab.: 13(4): 609-16). These procedures in brief, consist of an HI injury induced by unilateral carotid artery ligation followed by inhalational asphyxia in the animals with an implanted lateral ventricular cannula. A guide cannula was stereotaxically placed on the top of the dura 1.5 mm to the right of the mid-line and 7.5 mm anterior to the interaural zero plane under halothane anaesthesia. The right carotid artery was double ligated two days after the cannulation. After 1 hour recovery from the anaesthesia, each of the rats were placed in an incubator where the humidity (90±5%) and temperature (31°±0.5° C.) were controlled for another hour, then exposed to hypoxia (6% oxygen) for 10 min, The animals were kept in the incubator for an additional 2 hours before treatment.
Nine pairs of rats were treated intracerebral ventricularly (icy) with either cG-2AllylP (2 ng) or its vehicle (normal saline) 2 hours after hypoxic-ischemic insult. Rats in each group were simultaneously infused with cG-2AllylP or its vehicle under light anaesthesia (1.5% halothane) 2 hours after the insult. […]
Coronal sections 8 μm in thickness were cut from the striatum, cerebral cortex and hippocampus and were stained with thionin and acid fuchsin. The histological outcome was assessed at three levels: (1) the mid level of the striatum, (2) where the completed hippocampus first appeared and (3) the level where the ventral horn of the hippocampus just appears. The severity of tissue damage was scored in the striatum, cortex and the CA1-2, CA3, CA4 and dentate gyrus of the hippocampus. […]

[3] = system: pyridoxine-intoxicated rats; test: Pyridoxine-induced peripheral neuropathy: body weight and beam walk errors; assay type: in vivo, rat; details: for body weight (percentage of baseline weight): pyridoxine 400 mg/kg i.p. b.i.d. days 1-8, vs vehicle, FIG. 5
Experimental: […] Sprague-Dawley rats were habituated to walk across a wooden beam (4 cm diameter, 175 cm long, circular cross-section) over a training period of 8 days prior to initiating neuropathic toxicity treatment. Animals were weighed on the day prior to pyridoxine injection (mean body weight 270 g) and were randomized into treatment groups as follows: vehicle control (distilled water, n=16), 3 mg/kg cG-2-allylP (n=16) or 30 mg/kg cG-2-allylP (n=16). All groups received pyridoxine (400 mg/kg i.p.) 2/day for 8 days (days 1-8) and either vehicle or cG-2-allylP (3 or 30 mg/kg, p.o.) 1/day on days 1-10. Body weights were monitored throughout treatment and until study day 28. Beam walking was assessed on days 0 (baseline), 14, 21, and 28. Beam walk errors were assessed according to the method of Callizot (Callizot et al, Pyridoxine-Induced Neuropathy in Rats: a Sensory neuropathy that Responds to 4-methylcatechol, Neurobiol. Dis. 8:626-635 (2001.)) incorporated herein fully by reference. Each rat was scored for 7 steps taken in traversing the beam, as follows: 1=hind-paw placed on the top of the beam (normal); 2=paw contacted the lateral line of the beam; 3=paw overlapping the lateral line on the beam; 4=rat unable to place its feet on the beam. Rats that could walk across the beam therefore recorded a maximum functional deficit score of 28. Rats unable to take 7 steps along the beam scored 30, while rats unable to balance on the beam at all scored 32.
Two-way analysis of variance (ANOVA) was conducted on beam walk performance data, with time and treatment as variables, applying Bonferroni post-hoc tests to assess individual treatment condition differences. Statistical significance was assumed if p<0.05.

[4] = system: diabetic rats; test: Streptozotocin-induced diabetic neuropathy, tactile allodynia (von Frey hairs); assay type: in vivo, rat; details: 3-30 mg/kg p.o. 1/day for 14 days; STZ-diabetic rats
Experimental: Rats (225-250 g) are rendered diabetic by an i.p. injection of streptozotocin (STZ; 75 mg/kg). A diabetic condition is confirmed in each rat 10 days later by measurement of tail vein blood glucose levels. Only rats with a final blood glucose level>13.8 mM are considered diabetic and are included in the experiment.
Hyperglycemic, diabetic rats are dosed with cG-2-allylP (3-30 mg/kg, p.o. 1/day) from day 14 until day 28 (for a total of 14 days of treatment). Glucose measurements are taken on day 14 (pre-dose), day 21, day 28 and day 42.
Rats are tested for tactile allodynia on days 14 (pre-dose), and on days 16, 21, 28, 35 and 42 using van Frey hairs. Rats are tested for responsivity to von Frey hairs with calibrated bending forces of 1.5-15 g, to deliver punctate mechanical stimuli of varying intensities. Filaments exerting a force above 15 g are not used. Starting with the lowest filament force (1.5 g), von Frey hairs are applied to the plantar surface of the hind paw, with sufficient force to cause slight bending against the paw, and held for 1 s. Each stimulation is applied five times with an inter-stimulus interval of 5-10 s. Care is taken to stimulate random locations on the plantar surface. A positive response is noted if the paw was robustly and immediately withdrawn. […]

[5] = system: cleaved caspase-3 protein; details: rats exposed to hypoxia/ischaemia; cited from earlier work
[6] = system: microglia; details: response to hypoxia-ischemia in rat model; cited from earlier work

SMILES | number of cells having neurites [1] | glutamate-induced neurotoxicity [1] | tissue damage score ([2]; 2 ng icv 2 hours after hypoxic-ischemic insult, histology 5 days after injury, vs vehicle, p<0.001, FIG. 3) | neuronal damage scores ([2]; 2, 4, 20, 100 ng icv 2 hours after insult, all sites and doses other than 100 ng in striatum, FIG. 4) | efficacy by brain region ([2]; regions with progressive injury such as dentate gyrus and cerebral cortex, FIG. 4) | body weight (percentage of baseline weight) ([3]; 3 mg/kg p.o. 1/day days 1-10) | body weight (percentage of baseline weight) ([3]; 3 mg/kg p.o. 1/day days 1-10, listed as cG-2allylP) | body weight (percentage of baseline weight) ([3]; 30 mg/kg p.o. 1/day days 1-10) | body weight (percentage of baseline weight) ([3]; 30 mg/kg p.o. 1/day days 1-10, listed as cG-2allylP) | beam walking errors ([3]; 30 mg/kg p.o. days 1-10, test days 14, 21, 28, p<0.05 vs vehicle, FIG. 6) | pain threshold in response to von Frey hair pressure to hind paws [4] | expression of cleaved caspase-3 protein in the cerebral cortex [5] | activation of microglia [6] | loss of cerebellar neurons having neurites ([1]; glutamate 1 mM, compared to vehicle-treated controls, FIG. 1)
C[C@@]12CCCN1C(=O)C1(CCCC1)NC2=O [Cyclic cyclopentyl-G-2MeP, (8aS)-Methyl-spiro[cyclopentane-1,3(4H)-tetrahydropyrrolo[1,2-a]pyrazine]-1,4(2H)-dione] | significantly increased the number of cells having neurites | significant decrease in glutamate-induced neurotoxicity | – | – | – | – | – | – | – | – | – | – | – | –
C=CC[C@]12CCCN1C(=O)CNC2=O [cG-2-allylP, (8aS)-Allyl-hexahydropyrrolo[1,2-a]pyrazine-1,4-dione] | significantly increased the numbers of cells having neurites in a dose-dependent manner | significant decrease in glutamate-induced neurotoxicity | significantly reduced the tissue damage in each brain region examined | lessened the neural damage effects of hypoxia/ischemia | increased efficacy in brain regions that experienced progressive injury associated with delayed cell death | significantly attenuated the effect of pyridoxine on body weight on test day 9 | greater gain of body weight than in animals treated with pyridoxine alone | significantly attenuate pyridoxine-mediated body weight loss on days 9, 14, 21 and 28 | greater gain of body weight than in animals treated with pyridoxine alone | effectively prevented pyridoxine-induced beam walking errors | increase the pain threshold | decreased expression of cleaved caspase-3 protein in the cerebral cortex | reduce activation of microglia | –
N[C@@H](CCC(=O)O)C(=O)O [Glutamate, L-glutamate, reference compound] | – | – | – | – | – | – | – | – | – | – | – | – | – | ~85%

Reference: patent US8519127B2, “Cyclic glycyl-2-allyl proline and its use in treatment of peripheral neuropathy” (priority 2003, dated 2013)
